Measured values taken from patent US9169509B2, “Topoisomerase 2b as a predictor of susceptibility to anthracycline-induced cardiotoxicity” (Board of Regents, The University of Texas System, priority 2013, dated 2015).

Tests used:
[1] = test system: DNA double strand breaks in the heart; assay: Detection of DNA double strand breaks (γ-H2AX staining) in heart sections; format: in vivo, mouse; conditions: acute doxorubicin 25 mg/kg, 16 h
Experimental: After mice were sacrificed, hearts were perfused with ice-cold PBS, quickly removed, embedded in OCT compound (Fisher Scientific), and snap-frozen in liquid nitrogen. The heart was sectioned to 5 μm-thick slices using a cryostat. Heart sections were stored at −80° C. until immunofluorescence staining was performed. Heart sections were rinsed with PBS at room temperature, fixed in BD Cytofix/Cytoperm solution (BD Biosciences) for 15 m, washed in PBS, and permeabilized in BD Perm/Wash solution for 30 m. Heart sections were first blocked with BSA (2 mg/ml) for 30 m, then incubated with an mouse monoclonal anti-γ-H2AX antibody conjugated with Alexa Fluor 555 (Clone N1-431, BD Biosciences) for 1 h. Nuclei were stained with DAPI (Sigma, 1 μg/ml PBS), and the slides were sealed for examination with an Olympus epifluorescence microscope (Model BX51). To quantify DSBs, the numbers of γ-H2AX-positive nuclei and the total nuclei were counted in 5 microscopic fields (400×) per section. For each mouse, five heart sections were counted to determine the percentage of γ-H2AX-positive nuclei.
To further confirm the cardio-protective effect of Dex, DNA double strand breaks were assessed in heart tissues. Dexrazoxane (100 mg/kg) was injected (ip) 8 hrs prior to doxorubicin (25 mg/kg) treatment. Hearts were harvested 16 hr after doxorubicin treatment. The percentage of γH2AX-positive nuclei was counted in 5 fields (400×) in each heart section. Five sections were counted in each heart to determine the average percentage of γH2AX-positive nuclei.

[2] = test system: mouse heart; assay: Cardiac MRI for measuring cardiac function after chronic doxorubicin; conditions: mice, doxorubicin 5 mg/kg ip once a week for 5 weeks; decreased from 57% (Example 4, FIG. 13)
Experimental: Before Cre induction, cardiac MRI scan was performed on each mouse to examine the baseline ejection fraction. Cardiomyocyte-specific Cre induction was carried out by treating mice with tamoxifen. […] Doxorubicin treatment (5 mg/kg, i.p., once a week for 5 weeks) was started 7 days after the second MRI scan. Two weeks after the last dose of doxorubicin, a third MRI scan was performed (FIG. 6a).
Every mouse in the EF experiments received 3 MRI scans, i.e., a baseline scan, a second scan 2 weeks after the end of tamoxifen treatment, and a third scan 2 weeks after the last dose of doxorubicin. […] Mice were anesthetized with isoflurane (2.5% in 97.5% O2), and scanned on a 7.0 T Biospec small animal scanner (Bruker Biospin Inc., Billerica, Mass.). Imaging gradients with 60 mm inner diameter (ID) were used with a 35 mm ID linear birdcage-style volume resonator. T1-weighted anatomic reference images were acquired using a three dimension (3D) fast low-angle shot (FLASH) gradient echo sequence. A retrospectively gated FLASH pulse sequence was used to acquire cardiac cine images with excellent contrast between bright blood and adjacent myocardium. To measure volumetric left ventricular ejection fraction (LVEF), at least 6 short axis images were scanned at 1 mm interval from the apex to the base of the heart. End-diastolic (ED) and end-systolic (ES) left ventricular volumes were obtained by the biplane area length method, and LVEF was calculated with the equation: [(ED-ES)/ED]/100.
Two weeks after completion of tamoxifen treatment mice were treated with doxorubicin or drug vehicle. Two cohorts of mice were treated with different schedules. […] To evaluate the chronic effect of doxorubicin on cardiac function, doxorubicin (5 mg/kg, i.p.) was administered once a week for 5 weeks, and cardiac function was examined 2 weeks after the last dose of doxorubicin by using MRI.
The effect of chronic doxorubicin treatment (5 mg/kg, ip, once a week for 5 weeks) was evaluated for its effect on ejection fraction.

[3] = test system: cardiomyocytes; assay: Western blot of Ndufa3, Atp5a and Sdha in mitochondria isolated from cardiomyocytes; format: in vivo, mouse; conditions: cardiomyocytes of doxorubicin-treated Top2b+/+ mice, 72 h
Experimental: Expression of Top2b was examined in the hearts of mice. After sacrifice, the heart was quickly removed and homogenized immediately in lysis buffer. After homogenization, the lysate was sonicated at 4° C. and an aliquot was removed for protein concentration measurement. The lysate was stored at −80° C. for western blot analysis. 20 μg of lysate proteins were electrophoresed and transferred to PVDF membranes. Blots were blocked with 5% non-fat dry milk, and incubated overnight at 4° C. with anti-Top2b antibody (Abcam). To detect mitochondrial proteins, the mitochondria were isolated from cardiomyocytes. The cardiomyocytes were isolated with a Langendorff perfusion system according to a published protocol3. Briefly, heart was removed and rinsed with ice-cold PBS twice before connecting to a Langendorff apparatus through the aorta. The heart was perfused first with perfusion buffer for 3 m at 37° C. (3 ml/min), then digestion buffer (enzyme-containing) buffer at 37° C. for 8-10 m. The heart was disintegrated manually and the tissue/cells were separated by using forceps. […] After incubation with HRP-conjugated secondary antibodies for 40 m at room temperature, the blots were detected with a luminol-based detection kit (ECL, GE Health Care).

[4] = test system: HL-1 cells; assay: PGC-1 expression in HL-1 cells by RT-qPCR; format: cell-based; conditions: doxorubicin 1 μm for 2 or 4 hours
Experimental: FIGS. 7a-e: a, b. PGC-1 expression in HL-1 cells. […] Expression was measured with RT-qPCR. c, d. CHiP analysis in HL-1 cells. HL-1 cardiomyocytes were treated with (right bars) or without (left bars) DOX ([…]) for 2 hrs and isolated for ChIP using the Top2β antibody. The eluted DNA and Input were PCR amplified to detect specific promoter regions represented in the schematic above the respective ChIP data. […] CHiP study in cardiomyocytes. Cardiomyocytes were isolated from control (n=4) and Dox-treated (n=4) mice and subject to ChIP with the Top2b antibody. The data represent real-time PCR ratios for the fold-enrichment of Top2b at the respective promoters.

SMILES: COc1cccc2c1C(=O)c1c(O)c3c(c(O)c1C2=O)C[C@@](O)(C(=O)CO)C[C@@H]3O[C@H]1C[C@H](N)[C@H](O)[C@H](C)O1 [doxorubicin]
- DSBs in the nuclei (γ-H2AX-positive nuclei) ([1]; Top2b+/+ mice): caused DSBs
- Reduction of doxorubicin-caused DSBs in Top2bΔ/Δ mice versus Top2b+/+ mice [1]: 60%
- Ejection fraction after treatment [2]: 45%
- Protein levels of Ndufa3, Atp5a and Sdha in mitochondria [3]: reduction in the protein levels
- Expression of PGC-1α [4]: Reduced expression
- Expression of PGC-1β [4]: Reduced expression
